Columns and labels:
Type in all cases: cell-based, Vibrio cholerae O1
V. cholerae O1 Matlab I = assay: Sensitivity to polymyxin B (50U), Matlab I; conditions: 2 strains
From the text: (§1) […]. The basis of a retrospective examination of these strains was their unusual response to polymyxin B (50U), chicken cell agglutination (CCA), Voges-Proskauer (VP) reaction, and sensitivity to group IV and V phages, all of which are phenotypic traits commonly used to differentiate between the classical and El Tor biotypes. The 24 strains were reexamined for the above phenotypic characteristics by standard procedures.
(§2) We examined the commonly used phenotypic traits used to distinguish between the El Tor and classical biotypes of V. cholerae and differentiated the 24 strains into three types (Table 1), which we classified as Matlab types I, II, and III. Matlab type I included two strains belonging to the Inaba serotype that were resistant to both the El Tor-specific group IV and the classical biotype specific group V phages, negative by the CCA and VP tests (both are classical traits), and resistant to polymyxin B (an El Tor trait).

[1] = tested on: V. cholerae O1 Matlab III; assay: Sensitivity to polymyxin B (50U), Matlab III; conditions: 21 strains
From the text: as §1, §2

V. cholerae O1 Matlab II = assay: Sensitivity to polymyxin B (50U), Matlab II; conditions: 1 strain
From the text: as §1, §2

## polymyxin B
V. cholerae O1 Matlab I
  Sensitivity to polymyxin B (50U): resistant
[1]
  Sensitivity to polymyxin B (50U): typical of the El Tor biotype
V. cholerae O1 Matlab II
  Sensitivity to polymyxin B (50U): sensitive
